Reference: PMC5581131, “The novel sphingosine-1-phosphate receptors antagonist AD2900 affects lymphocyte activation and inhibits T-cell entry into the lymph nodes” (Oncotarget, 2017)

Test system: human PBMCs
Experiment: 5-day MLR with Et-18-OCH3, BAPTA-AM or 8-bromo-cAMP preincubation, analogues present throughout
Format: cell-based
Details: 2 μM; 1 hour preincubation with the inhibitors
Method: To determine whether the effect of inhibition of AD2900 on PBMC proliferation is dependent on the same signal transduction pathways, we next examined the capacities of the intracellular Ca^2+ chelator-BAPTA-AM, phosphatidylinositol-specific PLC inhibitor-Et-18-OCH3, and cell-permeate exogenous cAMP-8-bromo-cAMP to alter the suppressive effect of AD2900 and FTY720 on PBMC proliferation. S1P served as a positive control (Figures 2A, 2B, and 2C, respectively). PBMCs were pre-incubated for 1 hour with the inhibitors before the addition of 2 μM AD2900, FTY720, or S1P in the MLR experiment. The inhibitors and the analogues were present in the culture throughout the allogeneic activation. AD2900 suppression of PBMC proliferation was reduced from 59% ± 3% to 32% ± 7% by the exogenous cAMP. BAPTA-AM also partially reversed AD2900 suppression of PBMC proliferation from 59% ± 3% to 32% ± 3%, yet Et-18-OCH3 had no effect (Figure 2A).
Figure 2 Effect of AD2900 on proliferation is dependent on cAMP reduction and calcium signal transduction The effect of Edelfosine (Et-18-OCH3) (Et), BAPTA-AM (BAPTA), or 8-bromo-cAMP (8-b-CAMP) on the inhibition of PBMC proliferation was tested in a 5-day MLR experiment. The cells were incubated with 1 μM Edelfosine, 0.2 μM BAPTA-AM, or 5 μM 8-bromo-cAMP for 1 hour before the addition of sphingolipid analogues, 2 μM AD2900 (AD) (A), FTY720 (FTY) (B), or S1P (C). Significances are compared to AD2900/FTY/S1P without preincubation, respectively. Graphs summarize the results of at least four independent experiments. Results of Student’s t-test: *(P < 0.05, two-tailed test), ** (P < 0.01, two-tailed test).
Human PBLs were collected from human whole blood collected from healthy donors. Subsequently, the cells were centrifuged on a Ficoll-Paque gradient (Fresenius Kabi Norge AS, Oslo, Norway) and were isolated from the interphase layer. For the human MLR experiment, PBMCs from one healthy donor were pretreated for 1 day with AD2900, AD2730, AD2750, YZ297, YZ158, FTY720, or SEW2871. After 24 h, cells were washed and plated at a concentration of 5 × 10^4 cells/well in round bottom 96-well plates containing RPMI-1640 medium Supplemented with 10% human AB serum, 1% penicillin/streptomycin, and 1% l-glutamine (Beit Haemek, Israel). PBMCs from a second donor were irradiated at 3000 γ dosage and added to the plate in a 1:1 ratio with the first donor cells. The cells were cultured for 5 days. For the thymidine incorporation assay, after 4 days of co-culture, cells were pulsed with ^3H-thymidine at 1 μCi (0.037MBq) per well (PerkinElmer, MA, USA) for 16 additional hours and then harvested onto glass-fiber filters. ^3H-thymidine incorporation was measured using Top Count. NXT (PerkinElmer, UK). In other experiments, the supernatant was harvested after 5 days of co-culture for IFN-γ and TNF-α cytokine ELISA measurements (eBioscience, CA, USA). The cells were then collected for assessing apoptosis by FACS in MACSQuant analyzer (Miltenyi Biotech, Germany). In another set of experiments, the PBMCs of two donors were mixed. Sphingolipid analogues were then added to the culture and sustained through the 5 days of the MLR experiment.

With CCCCCCCCCCCCC/C=C/[C@@H](O)[C@@H](N)COP(=O)(O)O [S1P, Sphingosine-1-phosphate] the “effect of Et-18-OCH3, BAPTA-AM and 8-bromo-cAMP on suppression of PBMC proliferation” value was “reversed by all three inhibitors”.
